These results are taken from patent US8426408B2, “Pyrimidine inhibitors of kinases” (AbbVie Inc., priority 2009, dated 2013).

One assay concerns the target T1, Aurora B (Homo sapiens, UniProt Q96GD4).
T1 construct: Active Aurora B enzyme (recombinant residues 1-344)
The experiment in a line: Aurora B enzyme inhibition (time-resolved fluorescence, histone H3 peptide). The format is biochemical. Particulars: 1 mM ATP. In a few lines: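 Recombinant Aurora B (residues 1-344) with GST-INCENP phosphorylated biotinylated histone H3 (1-21) peptide at 1 mM ATP in HEPES pH 7.4 with MgCl2, orthovanadate and Triton X-100 for 1 h. After EDTA stop, the phosphopeptide was detected by TR-FRET (Eu-cryptate anti-phospho-H3 / SA-APC, 665/615 nm ratio). IC50 from an exponential fit.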

For a further assay, the target named is KDR (Homo sapiens, UniProt P35968). Put plainly: KDR cellular assay (KDR receptor phosphorylation ELISA). The format is cell-based. Set-up: expressed in transfected cells; host or cells: 3T3 (embryonic mouse) cells. Particulars: KDR transfected 3T3 (embryonic mouse) cells, VEGF stimulated; read-out: IC50 inhibition of KDR phosphorylation. The procedure, abridged: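 KDR-transfected mouse 3T3 cells treated 20 min at 37° C with half-log compound dilutions, then stimulated 10 min with VEGF (100 ng/ml solution). Lysates captured on anti-KDR plates; phosphorylation by biotin antibody/streptavidin-HRP ELISA at 450 nm. IC50 by non-linear regression.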

The next assay deals with NCI-H1299 cells. The experiment in a line: Induction of polyploidy in H1299. Format: cell-based, Human. As to conditions: NCI-H1299, 48 hours. In a few lines: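 NCI-H1299 cells in RPMI 1640/10% FCS were treated with inhibitor concentrations in duplicate for 48 h at 37 C, then formalin-fixed and Hoechst-stained. Nuclear area was measured by high-content imaging, with polyploid (≥4N) defined as >750 μ^2. EC15 was derived by least-squares fit of log dose-response.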

T1 sequence (Q96GD4 whole entry, the tested form may be a part): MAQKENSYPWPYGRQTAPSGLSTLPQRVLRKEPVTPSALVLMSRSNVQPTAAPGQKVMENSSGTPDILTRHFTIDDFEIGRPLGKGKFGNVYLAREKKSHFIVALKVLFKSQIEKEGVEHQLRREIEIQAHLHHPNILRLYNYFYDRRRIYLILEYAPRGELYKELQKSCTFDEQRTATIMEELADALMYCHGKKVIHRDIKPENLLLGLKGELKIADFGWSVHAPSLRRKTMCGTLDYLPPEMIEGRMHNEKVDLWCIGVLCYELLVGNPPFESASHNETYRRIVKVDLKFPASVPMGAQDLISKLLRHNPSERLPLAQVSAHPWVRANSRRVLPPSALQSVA
T1 sequence (Q9NQS7 826-918 partner limits assumed): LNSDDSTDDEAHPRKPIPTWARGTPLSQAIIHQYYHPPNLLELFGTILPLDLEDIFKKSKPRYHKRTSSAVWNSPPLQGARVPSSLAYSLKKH
Sequence of KDR (P35968 20-1356): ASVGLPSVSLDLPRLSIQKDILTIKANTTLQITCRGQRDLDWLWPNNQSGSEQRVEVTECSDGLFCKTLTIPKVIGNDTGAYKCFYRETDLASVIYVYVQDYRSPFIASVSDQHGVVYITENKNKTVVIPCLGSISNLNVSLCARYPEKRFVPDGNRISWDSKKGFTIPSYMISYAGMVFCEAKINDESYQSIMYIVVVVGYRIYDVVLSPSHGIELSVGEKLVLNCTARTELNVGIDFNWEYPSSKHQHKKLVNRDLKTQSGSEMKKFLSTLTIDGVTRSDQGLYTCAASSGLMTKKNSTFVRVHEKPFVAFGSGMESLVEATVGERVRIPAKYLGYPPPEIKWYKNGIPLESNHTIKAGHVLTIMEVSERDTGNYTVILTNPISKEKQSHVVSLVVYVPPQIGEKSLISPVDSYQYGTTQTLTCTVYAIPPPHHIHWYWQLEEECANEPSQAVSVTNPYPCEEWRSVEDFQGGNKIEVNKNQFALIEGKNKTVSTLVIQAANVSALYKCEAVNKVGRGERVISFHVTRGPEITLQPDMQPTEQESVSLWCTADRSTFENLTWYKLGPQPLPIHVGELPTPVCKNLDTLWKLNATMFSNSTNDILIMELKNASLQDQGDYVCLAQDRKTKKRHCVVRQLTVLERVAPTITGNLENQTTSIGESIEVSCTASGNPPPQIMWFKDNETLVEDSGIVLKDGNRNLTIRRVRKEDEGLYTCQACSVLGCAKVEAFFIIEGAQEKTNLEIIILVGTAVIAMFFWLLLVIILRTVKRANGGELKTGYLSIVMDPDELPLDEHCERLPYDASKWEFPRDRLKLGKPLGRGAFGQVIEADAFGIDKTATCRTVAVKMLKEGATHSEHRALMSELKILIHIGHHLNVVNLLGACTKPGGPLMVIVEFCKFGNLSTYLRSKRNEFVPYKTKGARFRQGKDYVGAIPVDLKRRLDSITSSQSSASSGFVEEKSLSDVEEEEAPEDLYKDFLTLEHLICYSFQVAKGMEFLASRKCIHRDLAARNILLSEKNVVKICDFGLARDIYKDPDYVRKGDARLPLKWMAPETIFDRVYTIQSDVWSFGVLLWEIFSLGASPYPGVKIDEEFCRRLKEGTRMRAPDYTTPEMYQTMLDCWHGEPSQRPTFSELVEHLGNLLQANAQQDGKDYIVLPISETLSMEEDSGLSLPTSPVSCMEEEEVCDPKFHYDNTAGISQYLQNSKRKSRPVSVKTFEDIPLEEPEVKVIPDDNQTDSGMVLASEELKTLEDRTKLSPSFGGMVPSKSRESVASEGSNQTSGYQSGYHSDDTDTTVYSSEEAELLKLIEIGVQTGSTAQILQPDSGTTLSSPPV

Consider `Cn1cc(Nc2ncc(C(F)(F)F)c(N[C@@H]3[C@H](C(N)=O)[C@H]4C=C[C@@H]3C4)n2)cn1.Cn1cc(Nc2ncc(C(F)(F)F)c(N[C@H]3[C@@H](C(N)=O)[C@@H]4C=C[C@H]3C4)n2)cn1` (mixture of isomers) [Example 10, (1S,2S,3R,4R)-3-{[2-[(1-methyl-1H-pyrazol-4-yl)amino]-5-(trifluoromethyl)pyrimidin-4-yl]amino}bicyclo[2.2.1]hept-5-ene-2-carboxamide and (1R,2R,3S,4S)-3-{[2-[(1-methyl-1H-pyrazol-4-yl)amino]-5-(trifluoromethyl)pyrimidin-4-yl]amino}bicyclo[2.2.1]hept-5-ene-2-carboxamide], for which, on Aurora B, the Ki was < 100 nM. Further, at KDR, the IC50 was < 100 nM. Further, the “EC15 (concentration of inhibitor necessary to induce polyploidy in 15% of cells)” value with NCI-H1299 cells is on record as “A (“A” represents an EC15 of less than 0.1 μM)”.
Consider `CC(O)Cn1cc(Nc2ncc(C(F)(F)F)c(NC3C4C=CC(C4)C3C(N)=O)n2)cn1` (mixture of isomers) [Example 19, (1R,2R,3S,4S)-3-{[2-({1-[(2R)-2-hydroxypropyl]-1H-pyrazol-4-yl}amino)-5-(trifluoromethyl)pyrimidin-4-yl]amino}bicyclo[2.2.1]hept-5-ene-2-carboxamide and (1S,2S,3R,4R)-3-{[2-({1-[(2R)-2-hydroxypropyl]-1H-pyrazol-4-yl}amino)-5-(trifluoromethyl)pyrimidin-4-yl]amino}bicyclo[2.2.1]hept-5-ene-2-carboxamide], for which the Ki at Aurora B was < 100 nM. Also, the IC50 on KDR is < 100 nM. Besides, in the assay on NCI-H1299 cells, the “EC15 (concentration of inhibitor necessary to induce polyploidy in 15% of cells)” value is “A (“A” represents an EC15 of less than 0.1 μM)”.
Regarding `Cn1cc(Nc2ncc(C(F)(F)F)c(N[C@@H]3[C@@H]4CC[C@@H](C4)[C@@H]3C(N)=O)n2)cn1.Cn1cc(Nc2ncc(C(F)(F)F)c(N[C@H]3[C@H]4CC[C@H](C4)[C@H]3C(N)=O)n2)cn1` (mixture of isomers) [Example 20, (1S,2S,3R,4R)-3-{[2-[(1-methyl-1H-pyrazol-4-yl)amino]-5-(trifluoromethyl)pyrimidin-4-yl]amino}bicyclo[2.2.1]heptane-2-carboxamide and (1R,2R,3S,4S)-3-{[2-[(1-methyl-1H-pyrazol-4-yl)amino]-5-(trifluoromethyl)pyrimidin-4-yl]amino}bicyclo[2.2.1]heptane-2-carboxamide], on Aurora B, the Ki is < 100 nM. The IC50 on KDR is < 100 nM. Moreover, the “EC15 (concentration of inhibitor necessary to induce polyploidy in 15% of cells)” value in the assay on NCI-H1299 cells was “A (“A” represents an EC15 of less than 0.1 μM)”.
`CC(O)Cn1cc(Nc2ncc(C(F)(F)F)c(NC3C4CCC(C4)C3C(N)=O)n2)cn1` (mixture of isomers) [Example 21, (1S,2R,3S,4R)-3-{[2-({1-[(2R)-2-hydroxypropyl]-1H-pyrazol-4-yl}amino)-5-(trifluoromethyl)pyrimidin-4-yl]amino}bicyclo[2.2.1]heptane-2-carboxamide and (1R,2S,3R,4S)-3-{[2-({1-[(2R)-2-hydroxypropyl]-1H-pyrazol-4-yl}amino)-5-(trifluoromethyl)pyrimidin-4-yl]amino}bicyclo[2.2.1]heptane-2-carboxamide] gave a Ki on Aurora B of 100 to 1000 nM. Besides, on KDR, the IC50 fell in the range of 100 to 1000 nM. In addition, the “EC15 (concentration of inhibitor necessary to induce polyploidy in 15% of cells)” value in the assay with NCI-H1299 cells is recorded as “A (“A” represents an EC15 of less than 0.1 μM)”.
For `CCn1cc(Nc2ncc(C(F)(F)F)c(N[C@@H]3[C@H](C(N)=O)[C@H]4C=C[C@@H]3C4)n2)cn1.CCn1cc(Nc2ncc(C(F)(F)F)c(N[C@H]3[C@@H](C(N)=O)[C@@H]4C=C[C@H]3C4)n2)cn1` (mixture of isomers) [Example 22, (1S,2S,3R,4R)-3-{[2-[(1-ethyl-1H-pyrazol-4-yl)amino]-5-(trifluoromethyl)pyrimidin-4-yl]amino}bicyclo[2.2.1]hept-5-ene-2-carboxamide and (1R,2R,3S,4S)-3-{[2-[(1-ethyl-1H-pyrazol-4-yl)amino]-5-(trifluoromethyl)pyrimidin-4-yl]amino}bicyclo[2.2.1]hept-5-ene-2-carboxamide], the Ki on Aurora B is < 100 nM. Also, the IC50 at KDR is < 100 nM. Also, in the assay with NCI-H1299 cells, the “EC15 (concentration of inhibitor necessary to induce polyploidy in 15% of cells)” value is reported as “A (“A” represents an EC15 of less than 0.1 μM)”.
`CCn1cc(Nc2ncc(C(F)(F)F)c(N[C@@H]3[C@H]4CC[C@H](C4)[C@@H]3C(N)=O)n2)cn1.CCn1cc(Nc2ncc(C(F)(F)F)c(N[C@H]3[C@@H]4CC[C@@H](C4)[C@H]3C(N)=O)n2)cn1` (mixture of isomers) [Example 24, (1R,2S,3R,4S)-3-{[2-[(1-ethyl-1H-pyrazol-4-yl)amino]-5-(trifluoromethyl)pyrimidin-4-yl]amino}bicyclo[2.2.1]heptane-2-carboxamide and (1S,2R,3S,4R)-3-{[2-[(1-ethyl-1H-pyrazol-4-yl)amino]-5-(trifluoromethyl)pyrimidin-4-yl]amino}bicyclo[2.2.1]heptane-2-carboxamide]: the Ki on Aurora B is < 100 nM. The IC50 on KDR is < 100 nM. The “EC15 (concentration of inhibitor necessary to induce polyploidy in 15% of cells)” value in the assay with NCI-H1299 cells was “A (“A” represents an EC15 of less than 0.1 μM)”.
Consider `CCn1cc(Nc2ncc(Br)c(N[C@@H]3[C@H](C(N)=O)[C@H]4C=C[C@@H]3C4)n2)cn1.CCn1cc(Nc2ncc(Br)c(N[C@H]3[C@@H](C(N)=O)[C@@H]4C=C[C@H]3C4)n2)cn1` (mixture of isomers) [Example 31, (1S,2S,3R,4R)-3-({5-bromo-2-[(1-ethyl-1H-pyrazol-4-yl)amino]pyrimidin-4-yl}amino)bicyclo[2.2.1]hept-5-ene-2-carboxamide and (1R,2R,3S,4S)-3-({5-bromo-2-[(1-ethyl-1H-pyrazol-4-yl)amino]pyrimidin-4-yl}amino)bicyclo[2.2.1]hept-5-ene-2-carboxamide], for which the Ki on Aurora B is < 100 nM. In addition, on KDR, the IC50 was < 100 nM. In addition, the “EC15 (concentration of inhibitor necessary to induce polyploidy in 15% of cells)” value in the assay on NCI-H1299 cells was “A (“A” represents an EC15 of less than 0.1 μM)”.
For `Cn1cc(Nc2ncc(Cl)c(N[C@@H]3[C@@H]4CC[C@@H](C4)[C@@H]3C(N)=O)n2)cn1.Cn1cc(Nc2ncc(Cl)c(N[C@H]3[C@H]4CC[C@H](C4)[C@H]3C(N)=O)n2)cn1` (mixture of isomers) [Example 113, (1R,2R,3S,4S)-3-({5-chloro-2-[(1-methyl-1H-pyrazol-4-yl)amino]pyrimidin-4-yl}amino)bicyclo[2.2.1]heptane-2-carboxamide and (1S,2S,3R,4R)-3-({5-chloro-2-[(1-methyl-1H-pyrazol-4-yl)amino]pyrimidin-4-yl}amino)bicyclo[2.2.1]heptane-2-carboxamide], the Ki on Aurora B was < 100 nM. The IC50 on KDR lay in the range of 100 to 1000 nM. Moreover, the “EC15 (concentration of inhibitor necessary to induce polyploidy in 15% of cells)” value with NCI-H1299 cells is “A (“A” represents an EC15 of less than 0.1 μM)”.
With `CCn1cc(Nc2ncc(Cl)c(N[C@@H]3[C@@H]4CC[C@@H](C4)[C@@H]3C(N)=O)n2)cn1.CCn1cc(Nc2ncc(Cl)c(N[C@H]3[C@H]4CC[C@H](C4)[C@H]3C(N)=O)n2)cn1` (mixture of isomers) [Example 114, (1R,2R,3S,4S)-3-({5-chloro-2-[(1-ethyl-1H-pyrazol-4-yl)amino]pyrimidin-4-yl}amino)bicyclo[2.2.1]heptane-2-carboxamide and (1S,2S,3R,4R)-3-({5-chloro-2-[(1-ethyl-1H-pyrazol-4-yl)amino]pyrimidin-4-yl}amino)bicyclo[2.2.1]heptane-2-carboxamide], on Aurora B, the Ki was < 100 nM. Besides, at KDR, the IC50 lay in the range of 100 to 1000 nM. The “EC15 (concentration of inhibitor necessary to induce polyploidy in 15% of cells)” value with NCI-H1299 cells was “A (“A” represents an EC15 of less than 0.1 μM)”.
For `CCn1cc(Nc2ncc(Cl)c(N[C@@H]3[C@H](C(N)=O)[C@@H]4C=C[C@H]3C4)n2)cn1.CCn1cc(Nc2ncc(Cl)c(N[C@H]3[C@@H](C(N)=O)[C@H]4C=C[C@@H]3C4)n2)cn1` (mixture of isomers) [Example 121, (1S,2R,3S,4R)-3-({5-chloro-2-[(1-ethyl-1H-pyrazol-4-yl)amino]pyrimidin-4-yl}amino)bicyclo[2.2.1]hept-5-ene-2-carboxamide and (1R,2S,3R,4S)-3-({5-chloro-2-[(1-ethyl-1H-pyrazol-4-yl)amino]pyrimidin-4-yl}amino)bicyclo[2.2.1]hept-5-ene-2-carboxamide] the same measures were < 100 nM, 100 to 1000 nM and “A (“A” represents an EC15 of less than 0.1 μM)”.
Consider `NC(=O)[C@@H]1CCC[C@@H]1Nc1nc(Nc2cnn(C3CCNCC3)c2)ncc1Cl.NC(=O)[C@H]1CCC[C@H]1Nc1nc(Nc2cnn(C3CCNCC3)c2)ncc1Cl` (mixture of isomers) [Example 136, (1S,2R)-2-[(5-chloro-2-{[1-(piperidin-4-yl)-1H-pyrazol-4-yl]amino}pyrimidin-4-yl)amino]cyclopentanecarboxamide and (1R,2S)-2-[(5-chloro-2-{[1-(piperidin-4-yl)-1H-pyrazol-4-yl]amino}pyrimidin-4-yl)amino]cyclopentanecarboxamide], for which the Ki on Aurora B was < 100 nM. In addition, the half-maximal inhibitory concentration (IC50) at KDR lay in the range of 100 to 1000 nM. The “EC15 (concentration of inhibitor necessary to induce polyploidy in 15% of cells)” value in the assay on NCI-H1299 cells is recorded as “A (“A” represents an EC15 of less than 0.1 μM)”.
